The values that follow come from patent US10478431B2, “Methods for treating a cytomegalovirus infection” (priority 2014, dated 2019).

Series [1] has as its system IE2 negative feedback (MIEP-IE2-IRES-GFP construct, LM2ig). The experiment in a line: IE2 negative feedback reporter: cells harboring LM2ig (MIEP-IE2-IRES-GFP), GFP by flow cytometry. Format: cell-based, human CMV (hCMV). The note with it: for increase in the number of GFP-positive cells: Hoechst 33342 0.25 μM, VPA concentrations as in Teng et al. (2012), cells harboring LM2ig, FIG. 6; for quiescent MIEP-driven expression in a reporter cell line: 20 μM Hoechst 33258, FACS, FIG. 4 upper panel; for production of IE2, as measured by GFP expression (GFP mean fluorescence intensity; GFP-MFI): ARPE-19 cells stably transduced with LM2ig, FIG. 1, FIG. 2. The protocol: (§1) MRCS fibroblasts and life-extended human foreskin fibroblasts (HFFs) (Bresnahan and Shenk, 2000) were maintained in Dulbecco's Modified Eagle's Medium (DMEM) supplemented with 10% fetal bovine serum (FBS) and 50 U/ml penicillin-streptomycin at 37° C. and 5% CO2 in a humidified incubator. ARPE-19 cells were maintained in a 1:1 mixture of DMEM/F-12 (Mediatech Inc.) with 10% FBS (HyClone) and 50 U/ml Penicillin-Streptomycin (Mediatech Inc.). Cells were treated with a final concentration of 1 mM valproic acid (VPA) (Calbiochem™), resuspended in dimethylsulfoxide, for approximately 24 hours before imaging. Cells were treated with a final concentration of 400 nM TSA (Sigma-Aldrich) resuspended in dimethylsulfoxide, for 20-24 hours, a final concentration of 10 ng/mL TNF-α (Sigma-Aldrich) resuspended in phosphate-buffered saline (PBS), or a final concentration of 1 mM VPA (Calbiochem) for approximately 24 hours before imaging.
(§2) Standard lentiviral cloning was used to create minimal major immediate early (MIE) circuits (Dull et al., 1998). The minimal MIEP-IE2-GFP and MIEP-GFP circuits are driven by a full-length ˜2.5 kb MIE promoter-enhancer (MIEP) that spans the sequence from the MIEP modulator at the 5′ edge to the junction of immediate early (IE) exons 1 and 2. The MIEP was polymerase chain reaction (PCR)-cloned from AD169 into pLEIGW in place of the EF1a promoter. This full-length MIEP drives an IE2-IRES-GFP or mCherry-IRES-GFP cassette. IE2 was cloned from pRSV-IE86 (a gift from Jay Nelson). ARPE-19 cells were infected and fluorescence-activated cell sorter (FACS) sorted for green fluorescent protein (GFP) fluorescence to create stably expressing cell lines. Cells were treated with Trichostatin-A (TSA) for 17 hours, and GFP expression was quantified by flow cytometry. Live cells were gated by forward-versus-side scattering on a FacsCalibur™ cytometer (BD Biosciences) and mean fluorescence intensity recorded. At least 20,000 live cells were recorded for each experiment and data was analyzed in FlowJo™ (Treestar Inc.).
See WO 2014/127148 for descriptions of MIEP-IE2-reporter constructs. For example, LM2ig construct is depicted in FIG. 7 of WO 2014/127148.
In general terms: Flow cytometry measures light scatter and fluorescence of single cells or particles in a stream.

For series [2], the system named is IE2 negative feedback (LM2ig "low" cells). The series can be described thus: LM2ig "low" drug screen (4 day induction, high throughput flow cytometry). Format: cell-based, human CMV (hCMV). The note with it: induction period of 4 days, FIG. 9. As to the method: LM2ig “low” cells (˜0% GFP positive before induction) were treated with agents in duplicate for an induction period of 4 days. During this induction period, the cell culture medium was not changed; images were taken every day for 4 days. On the final day, high throughput flow cytometry was carried out on FACS IntelliCyt. Agents tested were: Hoechst 33258, Hoechst 33342, VPA, TSA, TNF-α, hexamethylene bisacetamide (HMBA), phorbol myristate acetate (PMA), neotroposin, distamycin, DAPI, gemcitabine, prednisolone, suberanilohydroxamic acid (SAHA), (2E)-N-hydroxy-3-[4-({[2-(2-methyl-1H-indol-3-yl)ethyl]amino}methyl)phenyl]acrylamide (panobinostat), thapsigargin, JQ1, prostratin, dimizane acetate, pentamidine, or bendamustine.

The test system of series [3] is ARPE-19 cells stably transduced with LM2ig. The experiment in a line: Viability of ARPE-19 cells stably transduced with LM2ig. Format: cell-based. The note with it: FIG. 1, FIG. 2. The protocol:
as §1, §2

Series [4] concerns latent CMV in N-Tera2 cells. The series can be described thus: N-Tera2 latency assay (reactivation of latent CMV). The note with it: FIG. 4 lower panel. Format: cell-based, human CMV (hCMV). The protocol: Reactivation of latent CMV in N-Tera2 cells was conducted as previously described in (Meier, 2001).

Counter-ions that a name gives are not always drawn.

Regarding `CCOc1ccc(-c2nc3ccc(-c4nc5ccc(N6CCN(C)CC6)cc5[nH]4)cc3[nH]2)cc1` [Hoechst 33342, 2′-[4-ethoxyphenyl]-5-[4-methyl-1-piperazinyl]-2,5′-bi-1H-benzimidazole trihydrochloride trihydrate], the “percent GFP-positive cells” value in series [1] (0.25 μM Hoechst 33342, 24 hours, cells with LM2ig construct, FIG. 5) is on record as “increased”. Also, the “breaking of the IE2 negative feedback circuit” value in series [1] (24-28 hour exposure) is reported as “breaks the IE2 negative feedback circuit”. For the same compound, the “reactivation of the LM2ig minimal circuit” value in series [1] (Hoechst 33258: after 24 hours) is reported as “strongly reactivates”. Moreover, in series [1], the “increase in the number of GFP-positive cells” value stood at 3.49 fold. For the same compound, in series [1] (after 24 hours, alone), the “breaking of the minimal LM2ig circuit” value is on record as “does not break”. Further, in series [1] (long-term (e.g., 8-10 days) exposure), the “breaking of the circuit and reactivation of the promoter from an off (silenced) state” value was “breaks the circuit and reactivates the promoter”. For the same compound, the “breaking of the IE2 negative feedback (geometric mean of GFP)” value in series [2] is listed as “specifically break the IE2 negative feedback”.

On to `CC(/C=C/C(=O)NO)=C\[C@@H](C)C(=O)c1ccc(N(C)C)cc1` [TSA, (R,2E,4E)-7-(4-(dimethylamino)phenyl)-N-hydroxy-4,6-dimethyl-7-oxohepta-2,4-dienamide, reference compound], for which, in series [1] (ARPE-19 cells harboring LM2ig), the “quiescent MIEP-driven expression in a reporter cell line” value is on record as “not”. Besides, in series [1], the “production of IE2, as measured by GFP expression (GFP mean fluorescence intensity; GFP-MFI)” value is given as “increased IE2 expression”. For the same compound, the “cell viability / cytotoxicity” value in series [3] is on record as “not cytotoxic”. The “reactivation of latent CMV” value in series [4] is on record as “not”.

Take `CCCC(CCC)C(=O)O` [VPA, valproic acid, reference compound]: in series [1] (ARPE-19 cells harboring LM2ig), the “quiescent MIEP-driven expression in a reporter cell line” value is “not”. In series [1] (ARPE-19 cells harboring LM2ig, Hoechst 33258 with or without VPA, FIG. 7), the “number of GFP-positive cells” value is “induced an increase”. Also, in series [1] (ARPE-19 cells harboring LM2ig, Hoechst 33258 with or without VPA, FIG. 8), the “mean fluorescence intensity (MFI)” value is given as “did not substantially increase MFI”. For the same compound, in series [1], the “production of IE2, as measured by GFP expression (GFP mean fluorescence intensity; GFP-MFI)” value is recorded as “increased IE2 expression” and the “increase in the number of GFP-positive cells” value was determined as 1.69 fold. The “cell viability / cytotoxicity” value in series [3] is given as “not cytotoxic”. In addition, in series [4], the “reactivation of latent CMV” value is “not”.
